Measurements as given in the NIST ThermoML archive (doi:10.1021/je700321s).

Assay: xn = mol fraction of the nth substance listed
Conditions: Liquid, Vibrating tube method

CC(C)O [propan-2-ol] + O=C=O
Conditions | mass density [kg/m3]
313.08 K, 10061 kPa, x2 = 0.7943 | 800.9
313.08 K, 10515 kPa, x2 = 0.7943 | 804
313.08 K, 11013 kPa, x2 = 0.7943 | 807.3
313.08 K, 11507 kPa, x2 = 0.7943 | 810.6
313.08 K, 11994 kPa, x2 = 0.7943 | 813.5
313.08 K, 12199 kPa, x2 = 0.7943 | 814.6
313.08 K, 12410 kPa, x2 = 0.7943 | 815.6
313.08 K, 12606 kPa, x2 = 0.7943 | 816.7
313.09 K, 2502 kPa, x2 = 0.139 | 781.7
313.09 K, 3002 kPa, x2 = 0.139 | 782.3
313.09 K, 3513 kPa, x2 = 0.139 | 782.9
313.09 K, 4008 kPa, x2 = 0.139 | 783.5
313.09 K, 4501 kPa, x2 = 0.139 | 784.1
313.09 K, 5001 kPa, x2 = 0.139 | 784.7
313.09 K, 5497 kPa, x2 = 0.139 | 785.3
313.09 K, 6023 kPa, x2 = 0.139 | 785.9
313.09 K, 6504 kPa, x2 = 0.139 | 786.5
313.09 K, 7026 kPa, x2 = 0.139 | 787.1
313.09 K, 7489 kPa, x2 = 0.139 | 787.6
313.09 K, 7960 kPa, x2 = 0.9492 | 642.1
313.09 K, 7998 kPa, x2 = 0.139 | 788.2
313.09 K, 8001 kPa, x2 = 0.9492 | 648.3
313.09 K, 8200 kPa, x2 = 0.9492 | 666.4
313.09 K, 8400 kPa, x2 = 0.9492 | 677.7
313.09 K, 8509 kPa, x2 = 0.139 | 788.8
313.09 K, 8606 kPa, x2 = 0.9492 | 688.5
313.09 K, 8803 kPa, x2 = 0.9492 | 697
313.09 K, 8995 kPa, x2 = 0.139 | 789.3
313.09 K, 9002 kPa, x2 = 0.9492 | 704
313.09 K, 9201 kPa, x2 = 0.9492 | 710.9
313.09 K, 9408 kPa, x2 = 0.9492 | 717.1
313.09 K, 9503 kPa, x2 = 0.139 | 789.8
313.09 K, 9604 kPa, x2 = 0.9492 | 722.7
313.09 K, 9800 kPa, x2 = 0.9492 | 728.1
313.09 K, 10003 kPa, x2 = 0.9492 | 733.1
313.09 K, 10201 kPa, x2 = 0.9492 | 737.5
313.09 K, 10405 kPa, x2 = 0.9492 | 741.5
313.09 K, 10605 kPa, x2 = 0.9492 | 744.7
313.09 K, 10803 kPa, x2 = 0.9492 | 747.4
313.1 K, 3601 kPa, x2 = 0.2003 | 786.8
313.1 K, 4007 kPa, x2 = 0.2003 | 787.4
313.1 K, 4523 kPa, x2 = 0.2003 | 788.1
313.1 K, 5069 kPa, x2 = 0.2003 | 788.7
313.1 K, 5497 kPa, x2 = 0.2003 | 789.3
313.1 K, 5812 kPa, x2 = 0.4248 | 801.4
313.1 K, 6012 kPa, x2 = 0.4248 | 801.7
313.1 K, 6027 kPa, x2 = 0.2003 | 790
313.1 K, 6200 kPa, x2 = 0.4248 | 802.1
313.1 K, 6395 kPa, x2 = 0.4248 | 802.6
313.1 K, 6504 kPa, x2 = 0.2003 | 790.7
313.1 K, 6602 kPa, x2 = 0.4248 | 803.1
313.1 K, 6803 kPa, x2 = 0.4248 | 803.5
313.1 K, 7010 kPa, x2 = 0.2003 | 791.3
313.1 K, 7055 kPa, x2 = 0.4248 | 804.1
313.1 K, 7208 kPa, x2 = 0.4248 | 804.3
313.1 K, 7409 kPa, x2 = 0.4248 | 804.8
313.1 K, 7494 kPa, x2 = 0.2003 | 791.9
313.1 K, 7611 kPa, x2 = 0.4248 | 805.2
313.1 K, 7802 kPa, x2 = 0.4248 | 805.7
313.1 K, 7989 kPa, x2 = 0.2003 | 792.6
313.1 K, 7998 kPa, x2 = 0.4248 | 806.1
313.1 K, 8201 kPa, x2 = 0.4248 | 806.5
313.1 K, 8557 kPa, x2 = 0.2003 | 793.2
313.1 K, 8597 kPa, x2 = 0.4248 | 807.3
313.1 K, 8797 kPa, x2 = 0.4248 | 807.6
313.1 K, 9017 kPa, x2 = 0.2003 | 793.8
313.1 K, 9024 kPa, x2 = 0.4248 | 808.1
313.1 K, 9602 kPa, x2 = 0.4248 | 809.3
313.1 K, 9636 kPa, x2 = 0.2003 | 794.6
313.1 K, 10055 kPa, x2 = 0.4248 | 810.1
313.12 K, 6801 kPa, x2 = 0.6086 | 802.8
313.12 K, 7000 kPa, x2 = 0.6086 | 803.5
313.12 K, 7203 kPa, x2 = 0.6086 | 804.4
313.12 K, 7402 kPa, x2 = 0.6086 | 805.2
313.12 K, 7602 kPa, x2 = 0.6086 | 806
313.12 K, 7804 kPa, x2 = 0.6086 | 806.8
313.12 K, 8010 kPa, x2 = 0.6086 | 807.7
313.12 K, 8124 kPa, x2 = 0.9715 | 526.2
313.12 K, 8197 kPa, x2 = 0.6086 | 808.3
313.12 K, 8400 kPa, x2 = 0.6086 | 809.1
313.12 K, 8526 kPa, x2 = 0.9715 | 627.3
313.12 K, 8602 kPa, x2 = 0.6086 | 809.8
313.12 K, 8812 kPa, x2 = 0.6086 | 810.5
313.12 K, 9000 kPa, x2 = 0.6086 | 811.3
313.12 K, 9002 kPa, x2 = 0.9715 | 662.5
313.12 K, 9213 kPa, x2 = 0.6086 | 812
313.12 K, 9392 kPa, x2 = 0.6086 | 812.6
313.12 K, 9522 kPa, x2 = 0.9715 | 689
313.12 K, 9600 kPa, x2 = 0.6086 | 813.3
313.12 K, 9802 kPa, x2 = 0.6086 | 814
313.12 K, 10001 kPa, x2 = 0.6086 | 814.6
313.12 K, 10021 kPa, x2 = 0.9715 | 708.1
313.12 K, 10520 kPa, x2 = 0.9715 | 722.7
313.12 K, 10993 kPa, x2 = 0.9715 | 734.9
313.12 K, 11514 kPa, x2 = 0.9715 | 746.8
313.12 K, 12038 kPa, x2 = 0.9715 | 757.3
313.12 K, 12512 kPa, x2 = 0.9715 | 765.8
313.12 K, 13003 kPa, x2 = 0.9715 | 773.6
313.12 K, 13500 kPa, x2 = 0.9715 | 781.1
313.12 K, 13998 kPa, x2 = 0.9715 | 788.2
313.12 K, 14495 kPa, x2 = 0.9715 | 794.8
313.12 K, 15008 kPa, x2 = 0.9715 | 801.1
323.03 K, 6842 kPa, x2 = 0.4248 | 786.9
323.03 K, 7010 kPa, x2 = 0.4248 | 787.3
323.03 K, 7302 kPa, x2 = 0.4248 | 788.1
323.03 K, 7530 kPa, x2 = 0.4248 | 788.6
323.03 K, 8004 kPa, x2 = 0.4248 | 789.7
323.03 K, 8302 kPa, x2 = 0.4248 | 790.4
323.03 K, 8401 kPa, x2 = 0.4248 | 790.6
323.03 K, 8500 kPa, x2 = 0.4248 | 790.8
323.03 K, 8603 kPa, x2 = 0.4248 | 791.2
323.03 K, 8710 kPa, x2 = 0.4248 | 791.4
323.03 K, 8821 kPa, x2 = 0.4248 | 791.7
323.03 K, 9000 kPa, x2 = 0.4248 | 792.1
323.03 K, 9209 kPa, x2 = 0.4248 | 792.5
323.03 K, 9309 kPa, x2 = 0.4248 | 792.8
323.03 K, 9401 kPa, x2 = 0.4248 | 793.1
323.03 K, 9502 kPa, x2 = 0.4248 | 793.3
323.03 K, 9601 kPa, x2 = 0.4248 | 793.4
323.03 K, 9728 kPa, x2 = 0.4248 | 793.7
323.05 K, 2995 kPa, x2 = 0.139 | 771.3
323.05 K, 3503 kPa, x2 = 0.139 | 771.9
323.05 K, 4003 kPa, x2 = 0.139 | 772.6
323.05 K, 4494 kPa, x2 = 0.139 | 773.2
323.05 K, 5074 kPa, x2 = 0.139 | 773.9
323.05 K, 5511 kPa, x2 = 0.139 | 774.5
323.05 K, 6033 kPa, x2 = 0.139 | 775.2
323.05 K, 7021 kPa, x2 = 0.139 | 776.4
323.05 K, 7506 kPa, x2 = 0.6086 | 779.7
323.05 K, 7514 kPa, x2 = 0.139 | 777.1
323.05 K, 7703 kPa, x2 = 0.6086 | 780.7
323.05 K, 7803 kPa, x2 = 0.6086 | 781.1
